This is an account of results in US20080026074A1, “Method of short term skin wrinkles correction using strontium divalent ion” (priority 2006, published 2008).

For data set [1] the following is noted: taken orally, long term use; cited from earlier work.
The subject of data set [2] is photoaged skin. Put plainly: topical application of strontium ion in a carrier to skin. To be noted: carrier e.g. distillate of orange flower petals (neroli floral water), within minutes of application. Type of data set: in vivo. The protocol:
The epidermal ridges are less pronounced, an effect that may be related to relaxation of erector muscles.
This effect lasted for about 4 hours.

For the compound `[Sr+2]` [strontium ion], the toxicity result in data set [1] was “toxicity is not a problem”. For the same compound, the “effect on skin texture” value in data set [2] is on record as “changes the texture of photoaged skin, resulting in a more youthful complexion”.
